Laboratory results published in PubChem BioAssay (NCI).
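Tested at 5 concentrations; 48 h exposure; 96-well plates; endpoints linearly interpolated, else capped at highest concentration. At the TGI there is no net growth.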

How the values were obtained:
Assay in all cases: inhibition of tumour cell growth, NCI panel, 48 h
[1] = test system: HOP-62 NSCLC
[2] = test system: A498 renal
[3] = test system: SK-MEL-2 melanoma
[4] = test system: M14 melanoma
[5] = test system: HL-60(TB) leukemia
[6] = test system: SR leukemia
[7] = test system: HCT-15 colon
[8] = test system: HCT-116 colon
[9] = test system: HS 578T breast
[10] = test system: HOP-92 NSCLC
[11] = test system: K-562 leukemia
[12] = test system: NCI/ADR-RES ovarian
[13] = test system: OVCAR-3 ovarian
[14] = test system: UACC-257 melanoma
[15] = test system: MCF7 breast
[16] = test system: OVCAR-4 ovarian
[17] = test system: SNB-75 CNS
[18] = test system: COLO 205 colon
[19] = test system: CAKI-1 renal
[20] = test system: SN12C renal
[21] = test system: 786-0 renal
[22] = test system: SNB-19 CNS
[23] = test system: LOX IMVI melanoma
[24] = test system: HCC-2998 colon
[25] = test system: UO-31 renal
[26] = test system: MDA-MB-231 breast
[27] = test system: RXF 393 renal
[28] = test system: MALME-3M melanoma
[29] = test system: KM12 colon
[30] = test system: DU-145 prostate
[31] = test system: ACHN renal
[32] = test system: SF-268 CNS
[33] = test system: HT29 colon
[34] = test system: NCI-H23 lung
[35] = test system: OVCAR-8 ovarian
[36] = test system: MOLT-4 leukemia
[37] = test system: U251 CNS
[38] = test system: NCI-H522 lung
[39] = test system: OVCAR-5 ovarian
[40] = test system: SK-OV-3 ovarian
[41] = test system: SK-MEL-5 melanoma
[42] = test system: NCI-H226 lung
[43] = test system: MDA-MB-435
[44] = test system: TK-10 renal
[45] = test system: CCRF-CEM leukemia
[46] = test system: MDA-N
[47] = test system: SW-620 colon
[48] = test system: SF-295 CNS
[49] = test system: A549 NSCLC
[50] = test system: NCI-H460 lung
[51] = test system: T-47D breast
[52] = test system: IGROV1 ovarian
[53] = test system: RPMI-8226 leukemia
[54] = test system: UACC-62 melanoma
[55] = test system: SK-MEL-28 melanoma
[56] = test system: BT-549 breast
[57] = test system: EKVX NSCLC
[58] = test system: PC-3 prostate
[59] = test system: SF-539 CNS

Measured: TGI

CC(=O)c1c(C)cn(S(=O)(=O)NC(=O)Nc2nncs2)c1C
78.1 µM: [45]
not listed: [59]
> 100 µM: all other assays above

O=S(=O)(c1ccccc1)[C@H]1[C@@H]2O[C@@H]2C[C@@H]1O
not listed: [23]
> 100 µM: all other assays above

O=C1CC(c2ccccc2Cl)C2(C(=O)NC(=S)NC2=O)C(c2ccccc2Cl)C1 (stereo not drawn)
51 µM: [21]
42.9 µM: [50]
38.3 µM: [32]
32.8 µM: [27] | [37]
65.8 µM: [20]
99.3 µM: [38]
66.6 µM: [48]
53.6 µM: [7]
38.9 µM: [4]
58.6 µM: [41]
37.7 µM: [34]
98.2 µM: [56]
72.8 µM: [26]
93.5 µM: [51]
27.1 µM: [29]
34.4 µM: [43]
49.6 µM: [35]
77 µM: [52]
30.9 µM: [22]
36.4 µM: [23]
0.206 µM: [44]
32.1 µM: [10]
40.8 µM: [54]
31 µM: [28]
52.1 µM: [24]
81.8 µM: [58]
30.6 µM: [14]
62 µM: [3]
40.2 µM: [15]
65.5 µM: [49]
55.7 µM: [31]
40.4 µM: [2]
41 µM: [8]
71.4 µM: [42]
60 µM: [13]
22.8 µM: [9]
not listed: [19]
> 100 µM: all other assays above

Cc1cc(CN2CCCCC2)c(O)c(CN2CCCCC2)c1
not listed: [36] | [59]
> 100 µM: all other assays above

COC(=O)Cc1c([C@H]2[C@H](CC(=O)OC)c3ccccc3N2C(=O)C(F)(F)F)[nH]c2ccccc12
58.3 µM: [3]
62 µM: [43]
38.4 µM: [36]
73.4 µM: [26]
47.8 µM: [37]
90.6 µM: [28]
80.7 µM: [48]
38 µM: [13]
91.3 µM: [12]
55 µM: [50]
36.1 µM: [18]
56.2 µM: [38] | [45]
24.8 µM: [41]
92.1 µM: [9]
98.4 µM: [27]
30.3 µM: [54]
82.3 µM: [6]
84.6 µM: [17]
97.2 µM: [56]
not listed: [4] | [29]
> 100 µM: all other assays above
